Earlier results as cited in patent US9433643B2, “Microbicidal composition comprising hydrogen peroxide and aminocarboxylic acids” (Truox, Inc., priority 2013, dated 2016).

Assays:
[1] = reported
[2] = at 25° C., reported

Row | Compound | isoelectric point (pI) [2] | further results
1 | O=C(O)CN(CCN(CC(=O)O)CC(=O)O)CC(=O)O [EDTA, ethylenediaminetetraacetic acid] |  | pK1 ([1]; carboxylic acid groups): 2.00; pK2 ([1]; carboxylic acid groups): 2.65; pK3 ([1]; carboxylic acid groups): 6.18; pK4 ([1]; carboxylic acid groups): 10.30
2 | CC(=O)OO [Peroxyacetic acid] |  | pKa [1]: 4.76
3 | N=C(N)NCCC[C@H](N)C(=O)O [arginine] | 10.76 | 

The next lines start with results.

Row | isoelectric point (pI) [2] | Compound | further results
4 | 6.11 | C[C@H](N)C(=O)O [alanine] | 
5 | 2.98 | N[C@@H](CC(=O)O)C(=O)O [aspartic acid] | 
6 | 3.08 | N[C@@H](CCC(=O)O)C(=O)O [glutamic acid] | 
7 | 6.06 | NCC(=O)O [glycine, aminoethanoic acid] | 
